The text below walks through data of patent publication US7078400B2, “20-HETE synthase inhibitor” (Taisho Pharmaceutical Co., Ltd., priority 1999, dated 2006).

Data set [1] deals with 20-HETE synthase originated from rat kidney microsome. Briefly: Inhibitory effect of 20-HETE synthase originated from rat kidney microsome. Particulars: rat kidney microsome; for Inhibition rate (1 μM): 20-HETE production without compound set to 100%. Format: biochemical. The procedure:
Experimental Example [Inhibitory effect of 20-HETE synthase originated from rat kidney microsome]
Regarding the compounds listed in Table 1, their inhibitory activity to production of 20-HETE was examined.
The subject compound for this examination was added to a buffer comprising 50 mM of 3-morpholinopropane sulfonic acid (pH7.4), 5 mM of magnesium chloride and 1 mM of ethylenediaminetetraacetic acid (EDTA) disodium salt.
After that, the rat kidney microsome (microsome fraction prepared from the kidney of a spontaneous hypertension rat (male, 6 weeks of age)) as an enzyme, [5,6,8,9,11,12,14,15] tritium-arachidonic acid (supplied by Amasham) as a substrate, and NADPH (supplied by Sigma) as a coenzyme were added and reacted for 1.5 hours at 37° C.
After the reaction, formic acid was added to stop the reaction, and then acetonitrile (final concentration of 50%) was added and left for 1.5 hours at room temperature.
The activity of 20-HETE synthase was measured by using a high performance liquid chromatograph having a detector for radioactive substances (supplied by Gilson), and equipped with a C18 reversed phase column (Biocyl C18, supplied by Bio-rad).

The mark [2] stands for this setting: 1 μM of the subject compound added.
The mark [3] stands for this setting: concentration at which production of 20-HETE was inhibited to 50%.
[4] abbreviates: concentration at which 20-HETE production was inhibited to 50%.

The melting point is the temperature, or range, at which the solid turns liquid. The compound `O/N=C/Nc1ccc(Cl)cc1F` [Comp. 25] displayed a melting point of 142.5 to 144.5 °C. Moreover, the “Inhibition rate (1 μM)” value in data set [1] (setting [2]) came out at 87.0.
As usually defined, the IC50 is the midpoint of a concentration-inhibition curve. Regarding `COc1ccc(Cl)cc1N/C=N/O` [Comp. 26], the melting point is 155 to 156.5 °C. In data set [1] (setting [2]), the “Inhibition rate (1 μM)” value is given as 86.0. In addition, the 50% inhibitory concentration (IC50) in data set [1] (setting [3]) was determined as 204 nM.
Consider `O/N=C/Nc1ccc(C(F)(F)F)cc1` [Comp. 27], for which the melting point lay within 140.5 to 142 °C. In addition, the “Inhibition rate (1 μM)” value in data set [1] (setting [2]) is on record as 103.3. For the same compound, the concentration for half-maximal inhibition (IC50) in data set [1] (setting [3]) was 1.7 nM.
On the same counts, the results for `CCCCCCCc1ccc(N/C=N/O)cc1` [Comp. 28] are 119 to 120.5 °C, 92.5 and 4.7 nM.
In the case of `CC(C)c1cccc(N/C=N/O)c1` [Comp. 29], the melting point fell in the range of 93 to 94.5 °C. The “Inhibition rate (1 μM)” value in data set [1] (setting [2]) was 93.6.
`CCCc1ccc(N/C=N/O)cc1` [Comp. 31] showed a melting point of 131 to 132 °C. Also, the “Inhibition rate (1 μM)” value in data set [1] (setting [2]) was 97.8. For the same compound, 6.6 nM corresponded to half-maximal inhibition in data set [1] (setting [3]) (IC50).
In turn, `CC(C)c1ccccc1N/C=N/O` [Comp. 32] showed a melting point of 114 to 115 °C. For the same compound, the “Inhibition rate (1 μM)” value in data set [1] (setting [2]) is reported as 87.2.
In the same order, the values of `O/N=C/Nc1c(Br)cccc1Br` [Comp. 33] are 171 °C and 91.9.
`O/N=C/Nc1ccc(Br)cc1Br` [Comp. 34]: the melting point was in the range of 163 to 163.5 °C. The “Inhibition rate (1 μM)” value in data set [1] (setting [2]) is 90.6. This compound also yielded an IC50 in data set [1] (setting [3]) of 79.7 nM.
In the same order, the values of `O/N=C/Nc1ccc(Br)cc1` [Comp. 36] are 163 to 164 °C, 98.3 and 136 nM.
`Cc1cc(Cl)ccc1N/C=N/O` [Comp. 38] gave a melting point of 151 to 152.5 °C. Besides, the “Inhibition rate (1 μM)” value in data set [1] (setting [2]) came out at 89.8. The IC50 in data set [1] (setting [3]) was determined as 79.8 nM.
The compound `O/N=C/Nc1ccc(Cl)cc1Cl` [Comp. 40] returned a melting point of 160 to 161 °C. Besides, the “Inhibition rate (1 μM)” value in data set [1] (setting [2]) was found to be 98.2.
For `Cc1cc(Br)ccc1N/C=N/O` [Comp. 41], the melting point lay within 161 to 161.5 °C. Besides, in data set [1] (setting [2]), the “Inhibition rate (1 μM)” value turned out to be 96.6. Moreover, the IC50 in data set [1] (setting [3]) stood at 49 nM.
As for `CCC(C)c1ccccc1N/C=N/O` (stereo not shown) [Comp. 42], the melting point was 144 to 145 °C. The “Inhibition rate (1 μM)” value in data set [1] (setting [2]) is 99.9.
Compound `Cc1ccc(F)c(N/C=N/O)c1` [Comp. 43] came in with a melting point of 123 to 124 °C. In addition, the 50% inhibitory concentration (IC50) in data set [1] (setting [3]) came out at 168 nM.
In the same order, the values of `CCCOC(=O)c1ccc(N/C=N/O)cc1` [Comp. 44] are 145 to 146 °C and 8.1 nM.
In turn, `Cc1cc(C)c(N/C=N/O)c(Br)c1` [Comp. 45] returned a melting point of 163.5 to 164.5 °C. Moreover, the “Inhibition rate (1 μM)” value in data set [1] (setting [2]) is recorded as 53.5.
Regarding `O/N=C/Nc1cccc(C(F)(F)F)c1` [Comp. 46], the melting point is 100.5 to 102 °C. For the same compound, in data set [1] (setting [2]), the “Inhibition rate (1 μM)” value is given as 48.5. Besides, in data set [1] (setting [3]), it took 355 nM to reach half-maximal inhibition (IC50).
The compound `Cc1cc(I)ccc1N/C=N/O` [Comp. 47] displayed a melting point of 166 to 166.5 °C. In addition, in data set [1] (setting [2]), the “Inhibition rate (1 μM)” value is 94.8. In data set [1] (setting [3]), this compound displayed a 50% inhibitory concentration (IC50) of 6.5 nM.
In turn, `O/N=C/Nc1cc(C(F)(F)F)cc(C(F)(F)F)c1` [Comp. 49] came in with a melting point of 122.5 to 124 °C. Besides, the “Inhibition rate (1 μM)” value in data set [1] (setting [2]) stood at 46.7.
Compound `O/N=C/Nc1ccc(F)cc1F` [Comp. 50] yielded a melting point of 155.5 to 156.5 °C. Also, in data set [1] (setting [3]), the 50% inhibitory concentration (IC50) was 25.5 nM.
Turning to `Cc1cc(N/C=N/O)ccc1Br` [Comp. 51], the melting point lay within 157 to 158 °C. Moreover, in data set [1] (setting [2]), the “Inhibition rate (1 μM)” value was 50.2. In data set [1] (setting [3]), this compound returned an IC50 of 21.8 nM.
Turning to `Cc1ccc(N/C=N/O)cc1I` [Comp. 55], the melting point lay in the range of 130.5 to 132 °C. In addition, the “Inhibition rate (1 μM)” value in data set [1] (setting [2]) amounted to 31.3.
`CCc1cc(C#N)ccc1N/C=N/O` [Comp. 56] showed a melting point of 144 to 145.5 °C. Moreover, the “Inhibition rate (1 μM)” value in data set [1] (setting [2]) is on record as 50.6.
In turn, `CC(C)c1ccc(N/C=N/O)c(Br)c1` [Comp. 58] returned a melting point of 146.5 to 148 °C. The “Inhibition rate (1 μM)” value in data set [1] (setting [2]) is recorded as 99.9. For the same compound, the IC50 in data set [1] (setting [3]) turned out to be 7.1 nM.
Compound `Cc1cc(C)c(N/C=N/O)c(C)c1` [Comp. 72] came in with a melting point of 168 to 169 °C. Also, in data set [1] (setting [2]), the “Inhibition rate (1 μM)” value worked out at 99.2.
As for `O/N=C/Nc1cccc(Br)c1` [Comp. 82], the melting point lay in the range of 133.5 to 134.5 °C. Further, in data set [1] (setting [2]), the “Inhibition rate (1 μM)” value was 70.9.
On the same counts, the results for `O/N=C/Nc1c(Cl)cc(Cl)cc1Cl` [Comp. 121] are 166.5 to 167 °C and 72.0.
`CCOC(=O)Cc1ccc(N/C=N/O)cc1` [Comp. 122] registered a melting point of 106 to 107.5 °C. The “Inhibition rate (1 μM)” value in data set [1] (setting [2]) is recorded as 94.7. The concentration for half-maximal inhibition (IC50) in data set [1] (setting [3]) is 28.9 nM.
As to `O/N=C/Nc1cccc(Oc2ccccc2)c1` [Comp. 124], the melting point fell in the range of 100 to 102 °C. In addition, in data set [1] (setting [2]), the “Inhibition rate (1 μM)” value was 92.2. This compound gave an IC50 in data set [1] (setting [3]) of 354 nM.
Regarding `COc1cccc(C(F)(F)F)c1N/C=N/O` [Comp. 125], the melting point is 138 to 139.5 °C (dec.). For the same compound, the “Inhibition rate (1 μM)” value in data set [1] (setting [2]) turned out to be 67.6.
In the same order, the values of `O=[N+]([O-])c1cc(F)ccc1N/C=N/O` [Comp. 126] are 172.5 to 173 °C (dec.) and 34.9.
For `O/N=C/Nc1ccc(Oc2ccc(Cl)cc2)cc1` [Comp. 128], the melting point was 143 to 145 °C. In addition, the “Inhibition rate (1 μM)” value in data set [1] (setting [2]) is listed as 102.0. Besides, the IC50 in data set [1] (setting [3]) worked out at 7 nM.
`Cc1ccc(Oc2ccc(N/C=N/O)cc2)cc1` [Comp. 130]: the melting point is 155 to 156 °C. For the same compound, in data set [1] (setting [2]), the “Inhibition rate (1 μM)” value was determined as 116.5. Besides, in data set [1] (setting [3]), inhibition was half-maximal at 6.9 nM (IC50).
For the compound `O/N=C/Nc1ccc(Oc2ccccc2)cc1` [Comp. 131], the melting point fell in the range of 144 to 145.5 °C. Besides, the “Inhibition rate (1 μM)” value in data set [1] (setting [2]) was 89.2. The same compound returned an IC50 in data set [1] (setting [3]) of 26 nM.
On the same counts, the results for `Cc1ccc(N/C=N/O)cc1F` [Comp. 161] are 156 to 157 °C, 88.6 and 13.4 nM.
On the same counts, the results for `Cc1cc(N/C=N/O)ccc1C(C)C` [Comp. 178] are 121 to 122.5 °C, 91.4 and 9 nM.
In the case of `OCCc1ccc(N/C=N/O)cc1` [Comp. 207], the melting point is 138 to 140 °C. Also, in data set [1] (1 μM of subject compound), the “Inhibition rate (1 μM)” value was determined as 90.7. This compound yielded a half-inhibitory concentration (IC50) in data set [1] (setting [4]) of 11.6 nM.
In the same order, the values of `OCc1ccc(N/C=N/O)cc1` [Comp. 209] are 169.5 to 170 °C, 102.2 and 152 nM.
In the same order, the values of `C#CCOc1ccc(N/C=N/O)cc1` [Comp. 227] are 139 to 141 °C, 117.8 and 39.7 nM.
In the same order, the values of `N#Cc1ccc(-c2ccc(N/C=N/O)cc2)cc1` [Comp. 229] are 194 to 195 °C, 99.3 and 16 nM.
`O/N=C/Nc1cccc2c1CCCC2` [Comp. 231]: the melting point is 168.5 to 169 °C. The “Inhibition rate (1 μM)” value in data set [1] (1 μM of subject compound) came out at 92.9. In data set [1] (setting [4]), this compound came in with a half-inhibitory concentration (IC50) of 196 nM.
In the same order, the values of `CCCC(=O)c1ccc(N/C=N/O)c(C)c1` [Comp. 232] are 154 to 155 °C, 86.0 and 6.6 nM.
The compound `O/N=C/Nc1ccccc1-c1ccccc1` [Comp. 234] registered a melting point of 111 to 113 °C. Further, the “Inhibition rate (1 μM)” value in data set [1] (1 μM of subject compound) stood at 74.1.
Take `O/N=C/Nc1ccc(Br)c2ccccc12` [Comp. 235]: the melting point lay within 167.5 to 168 °C. In addition, the “Inhibition rate (1 μM)” value in data set [1] (1 μM of subject compound) was 77.8. In data set [1] (setting [4]), the midpoint of inhibition, the IC50, lay at 5920 nM.
On the same counts, the results for `O/N=C/Nc1ccc(/C=C/c2ccccc2)cc1` [Comp. 237] are 197.5 to 198 °C, 96.6 and 26.2 nM.
On the same counts, the results for `O/N=C/Nc1ccc2c(c1)CCC2` [Comp. 238] are 142.5 to 144 °C, 101.6 and 30 nM.
`O=C(c1ccccc1)c1ccc(N/C=N/O)cc1` [Comp. 239]: the melting point fell in the range of 182.5 to 183 °C. In data set [1] (setting [4]), this compound showed an IC50 of 4080 nM.
Compound `O/N=C/Nc1ccc(-n2ccc(C(F)(F)F)n2)cc1` [Comp. 273] showed a melting point of 165 to 167 °C. In data set [1] (1 μM of subject compound), the “Inhibition rate (1 μM)” value worked out at 89.2. In data set [1] (setting [4]), this compound had a half-maximal inhibitory concentration (IC50) of 96.8 nM.
In the same order, the values of `Cc1cc(NC(=O)c2ccccc2)c(Cl)cc1N/C=N/O` [Comp. 276] are 207 to 207.5 °C, 71.8 and 55.9 nM.
On the same counts, the results for `O/N=C/Nc1ccc(N2CCCCC2)cc1` [Comp. 294] are 162 to 162.5 °C, 103.2 and 4.9 nM.
On the same counts, the results for `O/N=C/Nc1ccc(N2CCOCC2)cc1` [Comp. 300] are 182 to 182.5 °C, 96.3 and 5.7 nM.
